Laboratory results from patent US7482462B2, “Acylsulfonamides as inhibitors of steroid sulfatase” (priority 2001, dated 2009).

Molecular target: T1, human steroid sulfatase (Homo sapiens, UniProt P08842)
T1 construct: Human placenta is obtained freshly after delivery; from tissue; host or cells: human placenta (microsomes, Triton X-100 extract, column-purified)
T1 sequence (P08842 22-583): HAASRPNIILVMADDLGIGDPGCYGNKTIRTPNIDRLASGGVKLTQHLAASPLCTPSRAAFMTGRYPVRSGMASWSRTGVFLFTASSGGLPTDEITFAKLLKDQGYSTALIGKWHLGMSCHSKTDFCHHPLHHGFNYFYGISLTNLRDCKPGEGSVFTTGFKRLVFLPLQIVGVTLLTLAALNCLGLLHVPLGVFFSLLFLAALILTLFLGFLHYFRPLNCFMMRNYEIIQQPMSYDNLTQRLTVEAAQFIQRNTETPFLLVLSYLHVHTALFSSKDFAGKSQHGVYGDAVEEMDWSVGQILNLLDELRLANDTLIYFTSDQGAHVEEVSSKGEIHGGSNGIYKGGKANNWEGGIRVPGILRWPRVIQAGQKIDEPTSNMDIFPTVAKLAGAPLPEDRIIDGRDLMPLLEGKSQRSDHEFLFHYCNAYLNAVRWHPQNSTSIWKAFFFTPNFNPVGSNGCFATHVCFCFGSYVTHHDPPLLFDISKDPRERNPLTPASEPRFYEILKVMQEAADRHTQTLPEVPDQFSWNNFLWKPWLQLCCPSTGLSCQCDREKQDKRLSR
Assay: Assay of Human Steroid Sulfatase (purified from placenta, 4-methylumbelliferyl sulfate cleavage, fluorescence)
Assay type: biochemical
Details: reference compound, determined in parallel to test compounds; substrate 4-methylumbelliferyl sulfate, 37° C., 1 hour
Procedure: For storage, the material is frozen at −70° C.
The activity is recovered in the flow-through.
Plates are incubated at 37° C. for 1 hour.
Relative IC50 values are defined as follows: […]

In the case of `CC12CCC3c4ccc(OS(N)(=O)=O)cc4CCC3C1CCC2=O` (stereo not shown) [estrone sulfamate, Estrone sulfamate], the IC50 is reported as about 60 nM.
